Assay results reported in patent publication US10973801B2, “Capsid assembly modulator dosing regimen” (Janssen Sciences Ireland Unlimited Company, priority 2018, dated 2021).
Several values for one entry are separate records, joined by “and”; a condition that tells them apart may be missing. Identical values can stand only once. Entries after “also recorded” stand apart in the source; their conditions may differ. Like-named read-outs stand apart in the source and are kept apart here. Marks after values point to notes of the source that are not given here.

Legend:
[1] = Oral bioavailability of Compound A 25-mg and 100-mg oral tablets, fasted and fed, in healthy adult subjects; assay type: in vivo, human; conditions: for Tmax: read-out: tmax (median)
Experimental: The primary objectives were to evaluate the oral bioavailability of Compound A when administered as single dose of 150 mg, composed of 6×25-mg oral tablets, under fasted and fed conditions, and as single dose of 300 mg, composed of 3×100-mg oral tablets, under fasted conditions in healthy adult subjects Part I was conducted to assess the bioavailability of new 25 mg oral tablets of Compound A under fasted and fed conditions, and of new 100 mg oral tablets of Compound A under fasted conditions, in healthy adult subjects. In Treatment Period 1 of Part I, all 16 subjects received a single 150 mg dose (6×25 mg oral tablets) under fed conditions (Treatment A). Thereafter, subjects were randomly assigned to either Arm 1 or Arm 2 in a 1:1 ratio. In Arm 1, subjects received a single 150 mg dose (6×25 mg oral tablets) under fasted conditions in Treatment Period 2 (Treatment B). In Arm 2, subjects received a single 300 mg dose (3×100 mg oral tablets) under fasted conditions in Treatment Period 2 (Treatment C). Full pharmacokinetic (PK) profiles of Compound A were determined over approximately 768 hours […] after Compound A administration on Day 1 of each treatment period. Safety and tolerability were assessed throughout the study. In Part I, 16 healthy adult subjects were included. After Treatment A (150 mg Compound A, fed) in Treatment Period 1, subjects were randomly assigned to either Arm 1 (n=8; Treatment B [150 mg Compound A, fasted]) or Arm 2 (Treatment C [[…]; 300 mg Compound A, fasted]) in a 1:1 ratio in Treatment Period 2. Fifteen subjects completed study participation in Part I, but all 16 subjects were included in the PK and safety analyses. […] Subjects had to be healthy on the basis of medical and surgical history, physical examination, 12 lead electrocardiogram (ECG), vital signs, and clinical laboratory tests performed at screening. Male and female subjects had to adhere to the contraceptive requirements as specified in the protocol. The study consisted of a screening phase, an admission phase, a treatment phase, and a follow-up phase (posttreatment phase). During the follow-up phase, subjects returned to the study site 10-14 days and 30-35 days after study drug administration in the last treatment period for a follow-up visit. The duration of each treatment phase was 33±3 days and the study duration per individual subject was at least 61 days (including admission and follow-up period), screening period not included.

[2] = Part 1: tolerability of Compound A in healthy subjects (sessions 1-7); assay type: in vivo, human; conditions: single doses up to 600 mg, multiple doses 150 mg for two days then 100 mg once a day for 10 days
HBV RNA = HBV RNA in treatment naïve chronic hepatitis B patients; assay type: in vivo, hepatitis B virus; conditions: N 8
Experimental: In part 2 of this study (FIG. 1, sessions 8-9), the objective was to evaluate the safety, PK, and antiviral activity of Compound A in treatment naïve, chronic hepatitis B patients over a 28-day treatment period. The patient criteria were: • HBeAg-positive or negative • Plasma HBV DNA>2.0 log 10 IU/mL • ALT/AST<2.5×ULN • METAVIR stage<F3. 1.1 Patient Baseline Characteristics HBV DNA was assessed for each patient weekly during this study (see FIG. 3). A mean reduction in plasma HBV DNA levels of 2.16 (±0.49 SD) log10 IU/mL (25 mg Compound A) and 2.89 (±0.48 SD) log10 IU/mL (75 mg Compound A) from baseline was observed after 28 days. Three patients dosed with 75 mg QD achieved HBV DNA below the level of quantification of the HBV DNA assay while none in the 25 mg Compound A group achieved this. A more pronounced and consistent decline in HBV DNA was observed across patients in the 75 mg group compared with the 25 mg group.

[3] = Adverse events over 28-day treatment in treatment naïve chronic hepatitis B patients; assay type: in vivo, human; conditions: for Amylase Increased (most common AEs) / At least one AE (on-treatment, 28 days) / Headache (most common AEs) / Worst Grade 1 AEs / Worst Grade 2 AEs / Worst Grade 3 AEs: n = 8
Source text: In part 2 of this study (FIG. 1, sessions 8-9), the objective was to evaluate the safety, PK, and antiviral activity of Compound A in treatment naïve, chronic hepatitis B patients over a 28-day treatment period. The patient criteria were: • HBeAg-positive or negative • Plasma HBV DNA>2.0 log 10 IU/mL • ALT/AST<2.5×ULN • METAVIR stage<F3. […] Although no patients had Grade 3 or 4 AEs on treatment, one patient had Grade 1 & 2 ALT and Grade 1 AST elevations on treatment that rose to Grade 3 & 4 ALT and Grade 3 AST elevations in follow up.

[4] = 150 mg, 6 × 25 mg, Fasting, Treatment B
[5] = 150 mg, 6 × 25 mg, Fasting, Treatment B (Reference)
[6] = 150 mg, 6 × 25 mg, Fed, Treatment A
[7] = 300 mg, 3 × 100 mg, Fasting, Treatment C
[8] = 300 mg, 3 × 100 mg, Fasting, Treatment C (Test)
[9] = Treatment A (fed) vs Treatment B (fasted), 150 mg
[10] = Treatment C (3 × 100 mg) vs Treatment B (6 × 25 mg), fasting

## C[C@H](NS(=O)(=O)c1cc(C(=O)Nc2ccc(F)c(C#N)c2)n(C)c1)C(F)(F)F [Compound A]
[1]; [4]
  AUClast, dose normalized to 25 mg (mean): 29467 ng·h/mL
  AUC∞, dose normalized to 25 mg (mean): 30318 ng·h/mL
  Cmax, dose normalized to 25 mg (mean): 320 ng/mL
[1]; [5]
  AUClast, dose normalized (to 25 mg), Geometric Mean: 27226 ng·h/mL
  AUC∞, dose normalized (to 25 mg), Geometric Mean: 28011 ng·h/mL
  Cmax, dose normalized (to 25 mg), Geometric Mean: 294 ng/mL
[1]; [6]
  AUClast, dose normalized to 25 mg (mean): 28502 ng·h/mL
  AUC∞, dose normalized to 25 mg (mean): 29580 ng·h/mL
  Cmax, dose normalized to 25 mg (mean): 257 ng/mL
[1]; [7]
  AUClast, dose normalized to 25 mg (mean): 30951 ng·h/mL
  AUC∞, dose normalized to 25 mg (mean): 32747 ng·h/mL
  Cmax, dose normalized to 25 mg (mean): 231 ng/mL
[1]; [8]
  AUClast, dose normalized (to 25 mg), Geometric Mean: 30835 ng·h/mL
  AUC∞, dose normalized (to 25 mg), Geometric Mean: 32329 ng·h/mL
  Cmax, dose normalized (to 25 mg), Geometric Mean: 231 ng/mL
[1]; [9]
  AUClast Geometric Mean Ratio: 101.05%
  AUC∞ Geometric Mean Ratio: 101.91%
  Cmax Geometric Mean Ratio: 85.8% and 85.84%
  Cmax lower under fed conditions: 14.2%
[1]; Treatment A, 150 mg fed
  Mean (range) t½term: 134.3 (65.7-221.6) hours
[1]; Treatment B, 150 mg fasted
  Mean (range) t½term: 123.9 (72.3-195.7) hours
[1]; [10]
  AUClast, dose normalized, Geometric Mean Ratio: 113.26%
  AUC∞, dose normalized, Geometric Mean Ratio: 115.42%
  Cmax, dose normalized, Geometric Mean Ratio: 78.4% and 78.44%
[1]; Treatment C vs Treatment B, fasted
  dose normalized Cmax lower for the 100 mg tablet strength compared to the 25 mg tablet strength: 21.6%
[1]; Treatment C, 300 mg fasted
  Mean (range) t½term: 161.1 (111.5-257.3) hours
[1]; both sexes, human, in vivo, oral, 150 mg, 6 × 25 mg, Fasting, Treatment B (Reference), read-out: AUClast, Geometric Mean
  AUC(0-t): 163 µg·h/mL
[1]; both sexes, human, in vivo, oral, 150 mg, 6 × 25 mg, Fasting, Treatment B (Reference), read-out: AUC∞, Geometric Mean
  AUC(0-inf): 168 µg·h/mL
[1]; both sexes, human, in vivo, oral, 150 mg, 6 × 25 mg, Fasting, Treatment B (Reference), read-out: Cmax, Geometric Mean
  Cmax: 1770 ng/mL
[1]; both sexes, human, in vivo, oral, 150 mg, 6 × 25 mg, Fasting, Treatment B, read-out: AUClast (mean)
  AUC(0-t): 177 µg·h/mL
[1]; both sexes, human, in vivo, oral, 150 mg, 6 × 25 mg, Fasting, Treatment B, read-out: AUC∞ (mean)
  AUC(0-inf): 182 µg·h/mL
[1]; both sexes, human, in vivo, oral, 150 mg, 6 × 25 mg, Fasting, Treatment B, read-out: Cmax (mean)
  Cmax: 1920 ng/mL
[1]; both sexes, human, in vivo, oral, 150 mg, 6 × 25 mg, Fasting, Treatment B
  Tmax: 1.75 h
[1]; both sexes, human, in vivo, oral, 150 mg, 6 × 25 mg, Fed (Standard Breakfast), Treatment A, read-out: Cmax (mean)
  Cmax: 1540 ng/mL
[1]; both sexes, human, in vivo, oral, 150 mg, 6 × 25 mg, Fed, Treatment A (Test), read-out: AUClast, Geometric Mean
  AUC(0-t): 165 µg·h/mL
[1]; both sexes, human, in vivo, oral, 150 mg, 6 × 25 mg, Fed, Treatment A (Test), read-out: AUC∞, Geometric Mean
  AUC(0-inf): 171 µg·h/mL
[1]; both sexes, human, in vivo, oral, 150 mg, 6 × 25 mg, Fed, Treatment A (Test), read-out: Cmax, Geometric Mean
  Cmax: 1520 ng/mL
[1]; both sexes, human, in vivo, oral, 150 mg, 6 × 25 mg, Fed, Treatment A, read-out: AUClast (mean)
  AUC(0-t): 171 µg·h/mL
[1]; both sexes, human, in vivo, oral, 150 mg, 6 × 25 mg, Fed, Treatment A, read-out: AUC∞ (mean)
  AUC(0-inf): 177 µg·h/mL
[1]; both sexes, human, in vivo, oral, 150 mg, 6 × 25 mg, Fed, Treatment A
  Tmax: 4 h
[1]; both sexes, human, in vivo, oral, 300 mg, 3 × 100 mg, Fasting, Treatment C, read-out: AUClast (mean)
  AUC(0-t): 371 µg·h/mL
[1]; both sexes, human, in vivo, oral, 300 mg, 3 × 100 mg, Fasting, Treatment C, read-out: AUC∞ (mean)
  AUC(0-inf): 393 µg·h/mL
[1]; both sexes, human, in vivo, oral, 300 mg, 3 × 100 mg, Fasting, Treatment C, read-out: Cmax (mean)
  Cmax: 2770 ng/mL
[1]; both sexes, human, in vivo, oral, 300 mg, 3 × 100 mg, Fasting, Treatment C
  Tmax: 3 h
[1]; both sexes, human, in vivo, oral, over all treatments and individuals, read-out: Clearance (CUF)
  clearance: 7.83 to 25.8 mL/min
[2]
  tolerability: well tolerated
HBV RNA; 25 mg QD
  HBV RNA Day 29 Mean Change from Baseline: −2.30 log10 cp/mL
  HBV RNA Day 29 Not detected (number of patients): 3
HBV RNA; 75 mg QD
  HBV RNA Day 29 Mean Change from Baseline: −1.85 log10 cp/mL
  HBV RNA Day 29 Not detected (number of patients): 6
[3]; 25 mg (100 mg Day 1)
  Amylase Increased (most common AEs): 2 (25)** n (%)
  At least one AE (on-treatment, 28 days): 5 n (%) and 5 (63) n (%)
  Headache (most common AEs): 2 (25) n (%)
  Worst Grade 1 AEs: 3 (38) n (%)
  Worst Grade 2 AEs: 1 (13) n (%)
  Worst Grade 3 AEs: 1 (13) n (%)
[3]; 25 mg and 75 mg, 28 days
  ECG changes and vital sign abnormalities: no patients showed clinically significant ECG changes or persistent/worsening vital sign abnormalities
  serious AEs, discontinuations, dose-limiting toxicities: no serious adverse events (SAES) or adverse events (AEs) of clinical concern and no treatment discontinuations; also recorded: no serious AEs, no discontinuations due to AEs, and no dose-limiting toxicities
  treatment-emergent Grade 3 or 4 laboratory abnormalities: No treatment-emergent Grade 3 or 4 laboratory abnormalities were reported, with the exception of the Grade 3 amylase increase
[3]; 75 mg
  Amylase Increased (most common AEs): 0 n (%)
  At least one AE (on-treatment, 28 days): 4 n (%) and 4 (50) n (%)
  Headache (most common AEs): 0 n (%)
  Worst Grade 1 AEs: 2 (25) n (%)
  Worst Grade 2 AEs: 1 (13) n (%)
  Worst Grade 3 AEs: 0 (0)* n (%)
[3]; both Compound A arms pooled (9/16)
  patients who experienced at least one AE during treatment: 56%
